Assay results: ChEMBL document CHEMBL1144371, “Design, synthesis, and biological evaluation of novel 4-hydroxypyrone derivatives as HIV-1 protease inhibitors” (Bioorg Med Chem Lett, 2005)

How the values were obtained:
[1] = molecular target: T1, Human immunodeficiency virus type 1 protease (Human immunodeficiency virus 1, UniProt Q72874); experiment: Inhibitory concentration against human immunodeficiency virus 1 protease in MT-4 cells; format: cell-based, MT4
CCRF-CEM [2] = experiment: Effective concentration required to protect CEM cells from […] immunodeficiency virus (SIV) infection; format: functional, cell-based
CCRF-CEM [3] = experiment: Ratio of toxic concentration (TC50) to the effective concentration (EC50) (Therapeutic Index) in CEM cells; format: functional, Homo sapiens
[4] = molecular target: T1, Human immunodeficiency virus type 1 protease; experiment: Effective concentration required to inhibit human immunodeficiency virus 1 protease in MT-4 cells; format: cell-based, MT4

Structure (SMILES) | IC50 [1] [µM] | EC50 (CCRF-CEM [2]) [µM] | TI (CCRF-CEM [3]) | EC50 [4] [µM]
CCCC1(CCc2ccccc2)CC(=O)C(C(CC)c2ccccc2)=C(O)O1 (stereo not drawn) | 0.035 | – | – | –
CCCC1(Cc2cccc3ccccc23)CC(=O)C(Sc2ccccc2C)=C(O)O1 (stereo not drawn) | – | 3.8 | >26 | –
CCCC1(CCc2ccccc2)CC(=O)C(Sc2cc(C)ccc2C)=C(O)O1 (stereo not drawn) | – | 4.3 | >23 | –
O=C1CC2(CCCCC2)OC(O)=C1Sc1ccccc1 | – | 12.3 | 4 | –
CCCC1(Cc2cccc3ccccc23)CC(=O)C(Sc2ccccc2)=C(O)O1 (stereo not drawn) | – | 4.3 | 13 | –
CCCC1(CCc2ccccc2)CC(=O)C(Sc2ccccc2C)=C(O)O1 (stereo not drawn) | – | 3.7 | >27 | –
CCCC1(Cc2cccc3ccccc23)CC(=O)C(Sc2ccccc2CC)=C(O)O1 (stereo not drawn) | – | 1.7 | 46 | 1.7
CCCC1(CCc2ccccc2)CC(=O)C(Sc2ccccc2CC)=C(O)O1 (stereo not drawn) | – | 4.1 | >24 | –
Cc1ccc(C)c(SC2=C(O)OC3(CCC(C(C)(C)C)CC3)CC2=O)c1 (stereo not drawn) | – | 8.3 | >12 | –
CCCC1(Cc2ccc3ccccc3c2)CC(=O)C(Sc2ccccc2CC)=C(O)O1 (stereo not drawn) | – | 1.8 | 34 | –
CCCC1(Cc2cccc3ccccc23)CC(=O)C(Sc2cc(C)ccc2C)=C(O)O1 (stereo not drawn) | – | 4.6 | 11 | –
Cc1ccccc1SC1=C(O)OC2(CCC(C(C)(C)C)CC2)CC1=O (stereo not drawn) | – | 6.7 | 8 | –
CCCC1(CCc2ccccc2)CC(=O)C(Sc2ccccc2)=C(O)O1 (stereo not drawn) | – | 4.6 | >22 | –
Cc1ccc(C)c(SC2=C(O)OC3(CCCCC3)CC2=O)c1 | – | 3.6 | >28 | –
CC(C)(C)C1CCC2(CC1)CC(=O)C(Sc1ccccc1)=C(O)O2 (stereo not drawn) | – | > 5 | 1 | –
CCc1ccccc1SC1=C(O)OC2(CCCCC2)CC1=O | – | 3.9 | >26 | –
O=C1CC(COc2ccccc2)(c2ccccc2)OC(O)=C1Sc1ccccc1 (stereo not drawn) | – | 13 | 2 | –
Cc1ccccc1SC1=C(O)OC2(CCCCC2)CC1=O | – | 3.3 | >30 | –
CCc1ccccc1SC1=C(O)OC2(CCC(C(C)(C)C)CC2)CC1=O (stereo not drawn) | – | 8.1 | 3 | –
CCCC1(Cc2ccc3ccccc3c2)CC(=O)C(Sc2ccccc2)=C(O)O1 (stereo not drawn) | – | 3.2 | 10 | –
Cc1ccc(C)c(SC2=C(O)OC(COc3ccccc3)(c3ccccc3)CC2=O)c1 (stereo not drawn) | – | 9.2 | 5 | –
Cc1ccccc1SC1=C(O)OC(COc2ccccc2)(c2ccccc2)CC1=O (stereo not drawn) | – | 8.2 | >12 | –
Cc1ccc(C(C)(C)C)c(SC2=C(O)OC(CCc3ccccc3)(C(C)C)CC2=O)c1 (stereo not drawn) | 0.0011 | – | – | 15
CCCC1(Cc2ccc3ccccc3c2)CC(=O)C(Sc2ccccc2C)=C(O)O1 (stereo not drawn) | – | 2 | 17 | –
CCc1ccccc1SC1=C(O)OC(COc2ccccc2)(c2ccccc2)CC1=O (stereo not drawn) | – | 5.6 | 8 | –
CCCC1(Cc2ccc3ccccc3c2)CC(=O)C(Sc2cc(C)ccc2C)=C(O)O1 (stereo not drawn) | – | 4 | 10 | –
CCC(c1ccccc1)c1c(O)c2ccccc2oc1=O (stereo not drawn) [PHENPROCOUMON] | 1 | – | – | –
